Measurements from patent US10351575B2, “Bicyclic urea, thiourea, guanidine and cyanoguanidine compounds useful for the treatment of pain” (Array BioPharma Inc., priority 2012, dated 2019).

How the values were obtained:
Experiment in all cases: KinaseProfiler off-target kinase profiling
Format in all cases: biochemical
Conditions in all cases: 10 μM, ATP near Km
[1] = biological target: NEK2 (Homo sapiens (Human), UniProt P51955)
Experimental: (§1) Representative compounds (Examples 12, 32, 26 and 2) of the invention were tested for off-target kinase activity at a concentration of 10 μM by Millipore, Inc. in their KinaseProfiler™ service against all the kinases available in their full kinase panel. Compounds were run in duplicate at a concentration of ATP near the Km for each individual kinase according to Millipore's specifications. The results are shown in Table B. Data are reported as percent of control (POC) and are the average of the two replicates.

[2] = biological target: PKCbetaII (Homo sapiens (Human), UniProt P05771)
Experimental: as §1

[3] = biological target: NLK (Homo sapiens (Human), UniProt Q9UBE8)
Experimental: as §1

[4] = biological target: PTK5 (Homo sapiens (Human), UniProt P42685)
Experimental: as §1

[5] = biological target: eEF-2K (Homo sapiens (Human), UniProt O00418)
Experimental: as §1

[6] = biological target: Haspin (Homo sapiens (Human), UniProt Q8TF76)
Experimental: as §1

[7] = biological target: PKCbetaI (Homo sapiens (Human), UniProt P05771)
Sequence of PKCbetaI (P05771 whole entry): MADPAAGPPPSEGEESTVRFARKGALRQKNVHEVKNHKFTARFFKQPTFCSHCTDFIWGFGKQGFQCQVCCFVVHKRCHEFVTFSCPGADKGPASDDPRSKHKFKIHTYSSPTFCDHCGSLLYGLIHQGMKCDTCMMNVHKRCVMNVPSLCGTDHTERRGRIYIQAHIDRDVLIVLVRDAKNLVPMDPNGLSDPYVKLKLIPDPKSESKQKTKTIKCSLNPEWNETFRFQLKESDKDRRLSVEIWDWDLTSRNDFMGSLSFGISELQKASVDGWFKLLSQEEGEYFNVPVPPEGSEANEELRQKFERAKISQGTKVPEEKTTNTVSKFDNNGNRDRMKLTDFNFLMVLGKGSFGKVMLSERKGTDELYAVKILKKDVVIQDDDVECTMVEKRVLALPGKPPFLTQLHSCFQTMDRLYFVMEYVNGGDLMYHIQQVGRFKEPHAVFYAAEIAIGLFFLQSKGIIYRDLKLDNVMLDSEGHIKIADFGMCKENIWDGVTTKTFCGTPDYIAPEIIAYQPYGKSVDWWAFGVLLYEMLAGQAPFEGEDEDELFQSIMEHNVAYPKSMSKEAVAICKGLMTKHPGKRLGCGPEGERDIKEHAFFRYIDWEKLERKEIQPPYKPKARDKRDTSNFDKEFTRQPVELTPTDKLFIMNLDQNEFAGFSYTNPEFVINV
Experimental: as §1

[8] = biological target: AKT2 (Homo sapiens (Human), UniProt P31751)
Experimental: as §1

[9] = biological target: EphA8 (Homo sapiens (Human), UniProt P29322)
Experimental: as §1

[10] = biological target: EphA7 (Homo sapiens (Human), UniProt Q15375)
Experimental: as §1

[11] = biological target: c-RAF (Homo sapiens (Human), UniProt P04049, Y340D/Y341D)
Experimental: as §1

[12] = biological target: Mer (Homo sapiens (Human), UniProt Q12866)
Experimental: as §1

[13] = biological target: PKCtheta (Homo sapiens (Human), UniProt Q04759)
Sequence of PKCtheta (Q04759 whole entry): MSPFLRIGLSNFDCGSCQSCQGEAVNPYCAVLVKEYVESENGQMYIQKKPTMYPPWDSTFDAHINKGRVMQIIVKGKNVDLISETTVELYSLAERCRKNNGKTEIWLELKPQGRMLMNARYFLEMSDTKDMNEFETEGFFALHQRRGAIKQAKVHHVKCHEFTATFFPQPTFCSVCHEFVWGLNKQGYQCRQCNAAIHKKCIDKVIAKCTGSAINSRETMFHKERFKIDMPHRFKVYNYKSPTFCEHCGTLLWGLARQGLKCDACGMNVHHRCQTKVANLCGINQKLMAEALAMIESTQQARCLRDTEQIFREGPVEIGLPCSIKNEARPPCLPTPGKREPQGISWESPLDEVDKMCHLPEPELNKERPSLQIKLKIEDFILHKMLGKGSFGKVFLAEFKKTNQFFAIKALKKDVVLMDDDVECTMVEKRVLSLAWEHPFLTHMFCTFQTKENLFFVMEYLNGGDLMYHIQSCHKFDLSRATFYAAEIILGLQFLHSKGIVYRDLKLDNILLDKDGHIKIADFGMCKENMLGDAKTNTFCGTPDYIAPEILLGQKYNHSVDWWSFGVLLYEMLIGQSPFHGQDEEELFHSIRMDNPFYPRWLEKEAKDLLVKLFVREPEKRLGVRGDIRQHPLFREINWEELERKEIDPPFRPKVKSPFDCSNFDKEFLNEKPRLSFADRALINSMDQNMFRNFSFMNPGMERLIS
Experimental: as §1

[14] = biological target: IR Activated (Homo sapiens (Human), UniProt P06213)
Experimental: as §1

[15] = biological target: MST1 (Homo sapiens (Human), UniProt Q13043)
Experimental: as §1

[16] = biological target: STK33 (Homo sapiens (Human), UniProt Q9BYT3)
Experimental: as §1

[17] = biological target: Ret (Homo sapiens (Human), UniProt P07949)
Experimental: as §1

[18] = biological target: Pim-2 (Homo sapiens (Human), UniProt Q9P1W9)
Sequence of Pim-2 (Q9P1W9 whole entry): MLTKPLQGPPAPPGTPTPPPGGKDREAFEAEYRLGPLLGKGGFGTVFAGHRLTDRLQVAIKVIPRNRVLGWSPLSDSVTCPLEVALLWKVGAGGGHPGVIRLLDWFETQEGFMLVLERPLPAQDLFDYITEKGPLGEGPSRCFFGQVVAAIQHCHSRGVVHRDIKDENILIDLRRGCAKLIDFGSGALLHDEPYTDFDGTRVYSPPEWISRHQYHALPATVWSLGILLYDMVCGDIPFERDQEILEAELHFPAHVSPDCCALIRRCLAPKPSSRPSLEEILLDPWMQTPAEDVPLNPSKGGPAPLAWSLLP
Experimental: as §1

[19] = biological target: mTOR/FKBP12 (Homo sapiens (Human), UniProt P42345)
Experimental: as §1

[20] = biological target: ULK3 (Homo sapiens (Human), UniProt Q6PHR2)
Sequence of ULK3 (Q6PHR2 whole entry): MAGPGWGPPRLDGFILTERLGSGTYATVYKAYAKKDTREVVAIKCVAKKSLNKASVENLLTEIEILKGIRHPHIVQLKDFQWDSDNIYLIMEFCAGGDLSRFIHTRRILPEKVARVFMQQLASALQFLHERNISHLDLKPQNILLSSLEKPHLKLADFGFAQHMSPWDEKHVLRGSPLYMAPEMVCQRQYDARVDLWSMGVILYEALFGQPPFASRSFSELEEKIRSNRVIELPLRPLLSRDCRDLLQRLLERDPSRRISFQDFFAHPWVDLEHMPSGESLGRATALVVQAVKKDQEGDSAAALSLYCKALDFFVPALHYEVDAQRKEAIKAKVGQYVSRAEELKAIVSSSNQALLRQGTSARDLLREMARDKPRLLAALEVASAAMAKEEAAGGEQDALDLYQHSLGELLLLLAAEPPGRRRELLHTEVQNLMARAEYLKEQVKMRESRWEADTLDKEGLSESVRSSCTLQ
Experimental: as §1

[21] = biological target: ERK2 (Homo sapiens (Human), UniProt P28482)
Experimental: as §1

[22] = biological target: GSK3alpha (Homo sapiens (Human), UniProt P49840)
Experimental: as §1

[23] = biological target: CK1gamma3 (Homo sapiens (Human), UniProt Q9Y6M4)
Experimental: as §1

[24] = biological target: EphA4 (Homo sapiens (Human), UniProt P54764)
Experimental: as §1

[25] = biological target: Yes (Homo sapiens (Human), UniProt P07947)
Experimental: as §1

[26] = biological target: MKNK2 (Homo sapiens (Human), UniProt Q9HBH9)
Experimental: as §1

[27] = biological target: PKCzeta (Homo sapiens (Human), UniProt Q05513)
Experimental: as §1

[28] = biological target: EphB2 (Homo sapiens (Human), UniProt P29323)
Experimental: as §1

[29] = biological target: ROCK-I (Homo sapiens (Human), UniProt Q13464)
Experimental: as §1

[30] = biological target: MAP3K5 (Homo sapiens (Human), UniProt Q99683)
Sequence of MAP3K5 (Q99683 whole entry): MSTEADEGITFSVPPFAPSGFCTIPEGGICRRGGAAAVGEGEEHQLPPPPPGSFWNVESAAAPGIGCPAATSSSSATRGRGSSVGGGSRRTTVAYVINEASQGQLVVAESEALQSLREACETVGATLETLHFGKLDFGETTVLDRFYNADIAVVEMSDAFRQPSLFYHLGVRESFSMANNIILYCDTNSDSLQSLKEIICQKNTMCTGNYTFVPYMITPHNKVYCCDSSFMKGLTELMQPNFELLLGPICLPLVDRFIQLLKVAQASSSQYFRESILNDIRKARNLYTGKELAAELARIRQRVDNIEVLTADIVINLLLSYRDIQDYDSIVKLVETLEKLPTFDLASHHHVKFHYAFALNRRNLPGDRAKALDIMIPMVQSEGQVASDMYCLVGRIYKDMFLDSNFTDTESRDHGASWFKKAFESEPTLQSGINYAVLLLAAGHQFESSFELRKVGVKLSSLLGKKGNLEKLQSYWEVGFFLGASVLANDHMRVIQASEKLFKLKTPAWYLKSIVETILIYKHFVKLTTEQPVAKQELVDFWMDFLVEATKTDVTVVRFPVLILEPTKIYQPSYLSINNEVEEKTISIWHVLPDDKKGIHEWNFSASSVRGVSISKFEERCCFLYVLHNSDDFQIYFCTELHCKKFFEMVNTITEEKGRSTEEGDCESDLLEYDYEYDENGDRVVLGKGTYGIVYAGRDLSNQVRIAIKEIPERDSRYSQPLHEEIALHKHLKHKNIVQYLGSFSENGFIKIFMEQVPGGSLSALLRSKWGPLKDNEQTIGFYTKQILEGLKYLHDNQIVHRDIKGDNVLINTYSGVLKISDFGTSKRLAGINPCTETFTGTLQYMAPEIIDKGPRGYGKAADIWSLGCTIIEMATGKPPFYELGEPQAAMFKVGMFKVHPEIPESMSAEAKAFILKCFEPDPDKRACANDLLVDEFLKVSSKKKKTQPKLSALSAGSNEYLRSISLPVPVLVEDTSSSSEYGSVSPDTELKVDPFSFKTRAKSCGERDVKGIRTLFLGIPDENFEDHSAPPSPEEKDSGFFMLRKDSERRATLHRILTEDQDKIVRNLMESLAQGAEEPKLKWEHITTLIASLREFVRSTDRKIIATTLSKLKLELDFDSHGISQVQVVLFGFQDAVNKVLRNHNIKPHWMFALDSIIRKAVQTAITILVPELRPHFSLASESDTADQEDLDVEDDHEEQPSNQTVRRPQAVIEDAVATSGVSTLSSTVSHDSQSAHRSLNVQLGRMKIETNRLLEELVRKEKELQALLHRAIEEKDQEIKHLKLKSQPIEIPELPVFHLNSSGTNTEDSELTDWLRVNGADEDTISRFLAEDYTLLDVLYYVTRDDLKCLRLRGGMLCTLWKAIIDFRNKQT
Experimental: as §1

[31] = biological target: CLK2 (Homo sapiens (Human), UniProt P49760)
Experimental: as §1

[32] = biological target: Axl (Homo sapiens (Human), UniProt P30530)
Sequence of Axl (P30530 26-894): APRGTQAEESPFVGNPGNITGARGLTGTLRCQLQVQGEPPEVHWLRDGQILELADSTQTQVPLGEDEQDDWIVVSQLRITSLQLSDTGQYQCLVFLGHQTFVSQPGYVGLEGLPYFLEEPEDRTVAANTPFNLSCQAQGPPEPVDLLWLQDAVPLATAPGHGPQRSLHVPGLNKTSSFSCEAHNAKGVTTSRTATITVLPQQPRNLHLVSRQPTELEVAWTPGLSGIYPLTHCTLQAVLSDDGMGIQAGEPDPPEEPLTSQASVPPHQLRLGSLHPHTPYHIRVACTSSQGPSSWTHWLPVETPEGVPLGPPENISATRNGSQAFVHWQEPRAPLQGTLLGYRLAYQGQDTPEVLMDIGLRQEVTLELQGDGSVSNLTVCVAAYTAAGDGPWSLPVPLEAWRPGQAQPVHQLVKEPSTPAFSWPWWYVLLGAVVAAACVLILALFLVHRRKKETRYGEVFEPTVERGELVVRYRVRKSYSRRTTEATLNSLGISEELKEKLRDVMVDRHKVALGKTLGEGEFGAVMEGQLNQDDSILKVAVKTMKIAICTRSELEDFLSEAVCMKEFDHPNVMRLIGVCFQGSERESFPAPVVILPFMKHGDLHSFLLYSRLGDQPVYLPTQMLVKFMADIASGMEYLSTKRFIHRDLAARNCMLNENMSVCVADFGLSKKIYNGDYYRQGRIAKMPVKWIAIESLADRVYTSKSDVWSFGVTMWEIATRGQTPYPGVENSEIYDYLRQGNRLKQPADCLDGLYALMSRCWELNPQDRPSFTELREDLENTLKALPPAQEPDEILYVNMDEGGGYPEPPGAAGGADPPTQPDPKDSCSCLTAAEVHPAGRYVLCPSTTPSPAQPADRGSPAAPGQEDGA
Experimental: as §1

[33] = biological target: PTK6 (Homo sapiens (Human), UniProt Q13882)
Experimental: as §1

[34] = biological target: Plk3 (Homo sapiens (Human), UniProt Q9H4B4)
Sequence of Plk3 (Q9H4B4 whole entry): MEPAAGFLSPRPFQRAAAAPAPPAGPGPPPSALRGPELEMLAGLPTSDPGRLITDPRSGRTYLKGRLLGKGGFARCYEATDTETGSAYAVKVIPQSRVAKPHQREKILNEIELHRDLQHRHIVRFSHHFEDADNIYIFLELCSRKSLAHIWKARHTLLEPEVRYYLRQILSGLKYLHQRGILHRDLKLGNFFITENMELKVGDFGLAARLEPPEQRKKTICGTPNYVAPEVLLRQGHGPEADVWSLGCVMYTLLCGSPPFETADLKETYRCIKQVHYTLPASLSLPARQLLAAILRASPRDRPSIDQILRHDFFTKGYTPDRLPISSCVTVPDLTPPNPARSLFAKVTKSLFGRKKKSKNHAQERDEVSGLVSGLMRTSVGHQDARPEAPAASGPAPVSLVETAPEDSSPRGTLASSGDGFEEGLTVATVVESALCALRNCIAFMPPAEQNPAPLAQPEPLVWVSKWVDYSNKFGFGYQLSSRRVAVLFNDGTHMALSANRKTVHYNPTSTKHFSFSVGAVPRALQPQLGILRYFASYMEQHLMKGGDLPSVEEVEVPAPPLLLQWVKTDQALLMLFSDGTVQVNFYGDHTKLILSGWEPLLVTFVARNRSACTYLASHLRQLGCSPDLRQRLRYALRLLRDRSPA
Experimental: as §1

[35] = biological target: Lck (Homo sapiens (Human), UniProt P06239)
Experimental: as §1

[36] = biological target: MAP4K2 (Homo sapiens (Human), UniProt Q12851)
Experimental: as §1

[37] = biological target: ZAP-70 (Homo sapiens (Human), UniProt P43403)
Experimental: as §1

[38] = biological target: mTOR (Homo sapiens (Human), UniProt P42345)
Experimental: as §1

[39] = biological target: Hck (Homo sapiens (Human), UniProt P08631)
Experimental: as §1

Compound | Avg. POC [1] | Avg. POC [2] | Avg. POC [3] | Avg. POC [4] | Avg. POC [5] | Avg. POC [6] | Avg. POC [7] | Avg. POC [8] | Avg. POC [9] | Avg. POC [10] | Avg. POC [11] | Avg. POC [12] | Avg. POC [13] | Avg. POC [14] | Avg. POC [15] | Avg. POC [16] | Avg. POC [17] | Avg. POC [18] | Avg. POC [19] | Avg. POC [20] | also measured
Cc1c(-c2cnn(C)c2)nn(-c2ccccc2)c1NC(=O)N[C@H]1CCCc2ccccc21 [Example 2, (S)-1-(1′,4-dimethyl-1-phenyl-1H,1′H-3,4′-bipyrazol-5-yl)-3-(1,2,3,4-tetrahydronaphthalen-1-yl)urea] | 104 POC | 95.5 POC | 111 POC | 122 POC | 138 POC | 92.5 POC | 99 POC | 132 POC | 128.5 POC | 116 POC | 103.5 POC | 109.5 POC | 101 POC | 103 POC | 111.5 POC | 110.5 POC | 118.5 POC | 148 POC | 105 POC | 105 POC | Avg. POC [21]: 112.5 POC; Avg. POC [22]: 123.5 POC; Avg. POC [23]: 118 POC; Avg. POC [24]: 111.5 POC; Avg. POC [25]: 132.5 POC; Avg. POC [26]: 106.5 POC; Avg. POC [27]: 122.5 POC; Avg. POC [28]: 125 POC; Avg. POC [29]: 116.5 POC; Avg. POC [30]: 105 POC; Avg. POC [31]: 115.5 POC; Avg. POC [32]: 113.5 POC; Avg. POC [33]: 129 POC; Avg. POC [34]: 103 POC; Avg. POC [35]: 97.5 POC; Avg. POC [36]: 110 POC; Avg. POC [37]: 124 POC; Avg. POC [38]: 116 POC; Avg. POC [39]: 85.5 POC
Cc1c(-c2cnn(C)c2)nn(-c2ccccc2)c1NC(=O)NC1CCOc2cc(F)ccc21 (stereo not drawn) [Example 12, 1-(1′,4-dimethyl-1-phenyl-1H,1′H-[3,4′-bipyrazol]-5-yl)-3-(7-fluorochroman-4-yl)urea] | 91.5 POC | 100 POC | 115.5 POC | 100 POC | 140 POC | 97 POC | 93.5 POC | 127 POC | 122.5 POC | 96.5 POC | 96 POC | 98 POC | 117.5 POC | 109 POC | 92 POC | 106.5 POC | 85 POC | 118.5 POC | 105.5 POC | 89.5 POC | Avg. POC [21]: 106.5 POC; Avg. POC [22]: 119.5 POC; Avg. POC [23]: 104.5 POC; Avg. POC [24]: 114.5 POC; Avg. POC [25]: 119.5 POC; Avg. POC [26]: 103.5 POC; Avg. POC [27]: 99.5 POC; Avg. POC [28]: 112 POC; Avg. POC [29]: 116.5 POC; Avg. POC [30]: 111 POC; Avg. POC [31]: 100 POC; Avg. POC [32]: 106 POC; Avg. POC [33]: 125.5 POC; Avg. POC [34]: 115 POC; Avg. POC [35]: 92 POC; Avg. POC [36]: 107.5 POC; Avg. POC [37]: 140 POC; Avg. POC [38]: 104.5 POC; Avg. POC [39]: 103.5 POC
Cc1c(-c2ccc(=O)n(C)c2)nn(-c2ccccc2)c1NC(=O)NC1CN(CC(F)(F)F)Cc2ccccc21 (stereo not drawn) [Example 26, 1-(4-methyl-3-(1-methyl-6-oxo-1,6-dihydropyridin-3-yl)-1-phenyl-1H-pyrazol-5-yl)-3-(2-(2,2,2-trifluoroethyl)-1,2,3,4-tetrahydroisoquinolin-4-yl)urea] | 100.5 POC | 99 POC | 100.5 POC | 110 POC | 127.5 POC | 92 POC | 89 POC | 130 POC | 118.5 POC | 108 POC | 106.5 POC | 98 POC | 109 POC | 106 POC | 102 POC | 111 POC | 106.5 POC | 120.5 POC | 107.5 POC | 92.5 POC | Avg. POC [21]: 107.5 POC; Avg. POC [22]: 115.5 POC; Avg. POC [23]: 102.5 POC; Avg. POC [24]: 110 POC; Avg. POC [25]: 117.5 POC; Avg. POC [26]: 99.5 POC; Avg. POC [27]: 108.5 POC; Avg. POC [28]: 109.5 POC; Avg. POC [29]: 112 POC; Avg. POC [30]: 116.5 POC; Avg. POC [31]: 108.5 POC; Avg. POC [32]: 107 POC; Avg. POC [33]: 121 POC; Avg. POC [34]: 119 POC; Avg. POC [35]: 96.5 POC; Avg. POC [36]: 121 POC; Avg. POC [37]: 120.5 POC; Avg. POC [38]: 102.5 POC; Avg. POC [39]: 91.5 POC
